{
  "source": "paper PMC12188386",
  "about": "“Selective CBP/EP300 Bromodomain Inhibitors: Novel Epigenetic Tools to Counter TNF-α-Driven Inflammation” (JACS Au, 2025)",
  "test_in_all_cases": "NCI-60 one-dose screen",
  "assay_type_in_all_cases": "cell-based, human",
  "key": {"NCI-H460": {"test_system": "NCI-H460", "conditions": "10 µM, 48 h, Non-Small Cell Lung Cancer", "experimental": "(§1) Adapted from NCI-60 Screening Methodology, one-dose screen:20 Briefly, human tumor cell lines, grown in RPMI 1640 containing 5% FBS and 2 mM L-glutamine, were plated in 96 well plates at densities ranging from 5,000 to 40,000 cells/well 24 h prior to addition of test compounds (here 10 μM 2). 400x solutions of test compounds were prepared in DMSO, then diluted to 2x in medium supplemented with 50 μg/mL gentamicin. 100 μl of this 2x stock was added to cells previously plated in 100 μl medium, resulting in the desired final compound concentration. Cells were fixed in situ with cold TCA: untreated cells at the time of compound addition (Tz) and treated cells 48 h after addition of compound (Ti). Cells were washed, then su f rh damine s uti n μ at . w/v in acetic acid was added to each well and incubated for 10 minutes at room temperature. After washing again, the plates were air dried and bound stain solubilized with 10 mM Trizma base before absorbance was […]\n(§2) Percentage growth (%Growth) was calculated as follows:\n(§3) when Ti ≥ Tz, %Growth = Ti − Tz x 100 where Ti = absorbance from compound treated cells, Tz = absorbance from untreated cells at time zero, and C = absorbance from control (DMSO) treated cells. […]"}, "SK-MEL-5": {"test_system": "SK-MEL-5", "conditions": "10 µM, 48 h, Melanoma, values <0 indicate lethality", "experimental": "as §1, §2, §3"}, "OVCAR-4": {"test_system": "OVCAR-4", "conditions": "10 µM, 48 h, Ovarian Cancer", "experimental": "as §1, §2, §3"}, "DU-145": {"test_system": "DU-145", "conditions": "10 µM, 48 h, Prostate Cancer", "experimental": "as §1, §2, §3"}, "HCT-15": {"test_system": "HCT-15", "conditions": "10 µM, 48 h, Colon Cancer", "experimental": "as §1, §2, §3"}, "HOP-62": {"test_system": "HOP-62", "conditions": "10 µM, 48 h, Non-Small Cell Lung Cancer", "experimental": "as §1, §2, §3"}, "NCI-H322M": {"test_system": "NCI-H322M", "conditions": "10 µM, 48 h, Non-Small Cell Lung Cancer", "experimental": "as §1, §2, §3"}, "COLO 205": {"test_system": "COLO 205", "conditions": "10 µM, 48 h, Colon Cancer", "experimental": "as §1, §2, §3"}, "SN12C": {"test_system": "SN12C", "conditions": "10 µM, 48 h, Renal Cancer", "experimental": "as §1, §2, §3"}, "SF-268": {"test_system": "SF-268", "conditions": "10 µM, 48 h, CNS Cancer", "experimental": "as §1, §2, §3"}, "SK-MEL-2": {"test_system": "SK-MEL-2", "conditions": "10 µM, 48 h, Melanoma", "experimental": "as §1, §2, §3"}, "CCRF-CEM": {"test_system": "CCRF-CEM", "conditions": "10 µM, 48 h, Leukemia, relative to no-drug control and time zero", "experimental": "as §1, §2, §3"}, "PC-3": {"test_system": "PC-3", "conditions": "10 µM, 48 h, Prostate Cancer", "experimental": "as §1, §2, §3"}, "MDA-MB-435": {"test_system": "MDA-MB-435", "conditions": "10 µM, 48 h, Melanoma, values <0 indicate lethality", "experimental": "as §1, §2, §3"}, "HOP-92": {"test_system": "HOP-92", "conditions": "10 µM, 48 h, Non-Small Cell Lung Cancer", "experimental": "as §1, §2, §3"}, "IGROV1": {"test_system": "IGROV1", "conditions": "10 µM, 48 h, Ovarian Cancer", "experimental": "as §1, §2, §3"}, "NCI-H23": {"test_system": "NCI-H23", "conditions": "10 µM, 48 h, Non-Small Cell Lung Cancer", "experimental": "as §1, §2, §3"}, "UO-31": {"test_system": "UO-31", "conditions": "10 µM, 48 h, Renal Cancer", "experimental": "as §1, §2, §3"}, "A498": {"test_system": "A498", "conditions": "10 µM, 48 h, Renal Cancer", "experimental": "as §1, §2, §3"}, "SR": {"test_system": "SR", "conditions": "10 µM, 48 h, Leukemia", "experimental": "as §1, §2, §3"}, "RXF 393": {"test_system": "RXF 393", "conditions": "10 µM, 48 h, Renal Cancer, values <0 indicate lethality", "experimental": "as §1, §2, §3"}, "OVCAR-5": {"test_system": "OVCAR-5", "conditions": "10 µM, 48 h, Ovarian Cancer", "experimental": "as §1, §2, §3"}, "SNB-19": {"test_system": "SNB-19", "conditions": "10 µM, 48 h, CNS Cancer", "experimental": "as §1, §2, §3"}, "MDA-MB-468": {"test_system": "MDA-MB-468", "conditions": "10 µM, 48 h, Breast Cancer, values <0 indicate lethality", "experimental": "as §1, §2, §3"}, "HS 578T": {"test_system": "HS 578T", "conditions": "10 µM, 48 h, Breast Cancer", "experimental": "as §1, §2, §3"}, "MDA-MB-231/ATCC": {"test_system": "MDA-MB-231/ATCC", "conditions": "10 µM, 48 h, Breast Cancer", "experimental": "as §1, §2, §3"}, "T-47D": {"test_system": "T-47D", "conditions": "10 µM, 48 h, Breast Cancer", "experimental": "as §1, §2, §3"}, "EKVX": {"test_system": "EKVX", "conditions": "10 µM, 48 h, Non-Small Cell Lung Cancer", "experimental": "as §1, §2, §3"}, "SF-539": {"test_system": "SF-539", "conditions": "10 µM, 48 h, CNS Cancer", "experimental": "as §1, §2, §3"}, "TK-10": {"test_system": "TK-10", "conditions": "10 µM, 48 h, Renal Cancer", "experimental": "as §1, §2, §3"}, "NCI-H522": {"test_system": "NCI-H522", "conditions": "10 µM, 48 h, Non-Small Cell Lung Cancer", "experimental": "as §1, §2, §3"}, "SW-620": {"test_system": "SW-620", "conditions": "10 µM, 48 h, Colon Cancer", "experimental": "as §1, §2, §3"}, "HCT-116": {"test_system": "HCT-116", "conditions": "10 µM, 48 h, Colon Cancer", "experimental": "as §1, §2, §3"}, "K-562": {"test_system": "K-562", "conditions": "10 µM, 48 h, Leukemia", "experimental": "as §1, §2, §3"}, "HCC-2998": {"test_system": "HCC-2998", "conditions": "10 µM, 48 h, Colon Cancer", "experimental": "as §1, §2, §3"}, "KM12": {"test_system": "KM12", "conditions": "10 µM, 48 h, Colon Cancer", "experimental": "as §1, §2, §3"}, "OVCAR-8": {"test_system": "OVCAR-8", "conditions": "10 µM, 48 h, Ovarian Cancer", "experimental": "as §1, §2, §3"}, "RPMI-8226": {"test_system": "RPMI-8226", "conditions": "10 µM, 48 h, Leukemia", "experimental": "as §1, §2, §3"}, "BT-549": {"test_system": "BT-549", "conditions": "10 µM, 48 h, Breast Cancer", "experimental": "as §1, §2, §3"}, "U251": {"test_system": "U251", "conditions": "10 µM, 48 h, CNS Cancer", "experimental": "as §1, §2, §3"}, "SK-MEL-28": {"test_system": "SK-MEL-28", "conditions": "10 µM, 48 h, Melanoma", "experimental": "as §1, §2, §3"}, "NCI-H226": {"test_system": "NCI-H226", "conditions": "10 µM, 48 h, Non-Small Cell Lung Cancer", "experimental": "as §1, §2, §3"}},
  "data": [
    {"smiles": "Cc1cc2c(NC(=O)c3cc(NC(=O)c4ccco4)cc(-c4ccn(C)n4)c3)cccc2nn1", "note": "[Compound 2]", "values": [
      {"measurement": "%Growth", "setting": "NCI-H460", "result": 18, "unit": "%"},
      {"measurement": "%Growth", "setting": "SK-MEL-5", "result": -36, "unit": "%"},
      {"measurement": "%Growth", "setting": "OVCAR-4", "result": 63, "unit": "%"},
      {"measurement": "%Growth", "setting": "DU-145", "result": 87, "unit": "%"},
      {"measurement": "%Growth", "setting": "HCT-15", "result": 64, "unit": "%"},
      {"measurement": "%Growth", "setting": "HOP-62", "result": 67, "unit": "%"},
      {"measurement": "%Growth", "setting": "NCI-H322M", "result": 86, "unit": "%"},
      {"measurement": "%Growth", "setting": "COLO 205", "result": 32, "unit": "%"},
      {"measurement": "%Growth", "setting": "SN12C", "result": 63, "unit": "%"},
      {"measurement": "%Growth", "setting": "SF-268", "result": 72, "unit": "%"},
      {"measurement": "%Growth", "setting": "SK-MEL-2", "result": 18, "unit": "%"},
      {"measurement": "%Growth", "setting": "CCRF-CEM", "result": 43, "unit": "%"},
      {"measurement": "%Growth", "setting": "PC-3", "result": 54, "unit": "%"},
      {"measurement": "%Growth", "setting": "MDA-MB-435", "result": -47, "unit": "%"},
      {"measurement": "%Growth", "setting": "HOP-92", "result": 63, "unit": "%"},
      {"measurement": "%Growth", "setting": "IGROV1", "result": 54, "unit": "%"},
      {"measurement": "%Growth", "setting": "NCI-H23", "result": 71, "unit": "%"},
      {"measurement": "%Growth", "setting": "UO-31", "result": 43, "unit": "%"},
      {"measurement": "%Growth", "setting": "A498", "result": 91, "unit": "%"},
      {"measurement": "%Growth", "setting": "SR", "result": 19, "unit": "%"},
      {"measurement": "%Growth", "setting": "RXF 393", "result": -5, "unit": "%"},
      {"measurement": "%Growth", "setting": "OVCAR-5", "result": 89, "unit": "%"},
      {"measurement": "%Growth", "setting": "SNB-19", "result": 66, "unit": "%"},
      {"measurement": "%Growth", "setting": "MDA-MB-468", "result": -19, "unit": "%"},
      {"measurement": "%Growth", "setting": "HS 578T", "result": 19, "unit": "%"},
      {"measurement": "%Growth", "setting": "MDA-MB-231/ATCC", "result": 57, "unit": "%"},
      {"measurement": "%Growth", "setting": "T-47D", "result": 44, "unit": "%"},
      {"measurement": "%Growth", "setting": "EKVX", "result": 63, "unit": "%"},
      {"measurement": "%Growth", "setting": "SF-539", "result": 44, "unit": "%"},
      {"measurement": "%Growth", "setting": "TK-10", "result": 78, "unit": "%"},
      {"measurement": "%Growth", "setting": "NCI-H522", "result": 3, "unit": "%"},
      {"measurement": "%Growth", "setting": "SW-620", "result": 52, "unit": "%"},
      {"measurement": "%Growth", "setting": "HCT-116", "result": 38, "unit": "%"},
      {"measurement": "%Growth", "setting": "K-562", "result": 29, "unit": "%"},
      {"measurement": "%Growth", "setting": "HCC-2998", "result": 66, "unit": "%"},
      {"measurement": "%Growth", "setting": "KM12", "result": 28, "unit": "%"},
      {"measurement": "%Growth", "setting": "OVCAR-8", "result": 67, "unit": "%"},
      {"measurement": "%Growth", "setting": "RPMI-8226", "result": 32, "unit": "%"},
      {"measurement": "%Growth", "setting": "BT-549", "result": 33, "unit": "%"},
      {"measurement": "%Growth", "setting": "U251", "result": 61, "unit": "%"},
      {"measurement": "%Growth", "setting": "SK-MEL-28", "result": 68, "unit": "%"},
      {"measurement": "%Growth", "setting": "NCI-H226", "result": 49, "unit": "%"}
    ]}
  ]
}
